# Laboratory results reported in US6737383B1, “Herbicidal oxadiazolidines” (priority 1999, dated 2004).
# Key:
# rice = experiment: Test B flood test rice; format: in vivo, Oryza sativa
# Procedure, shortened: (§1)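 Each value is a visual injury score relative to controls, with 10 meaning complete control and 0 no effect. Evaluation took place twelve to sixteen days after the 2-leaf-stage plants were treated and kept in the greenhouse.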
# cocklebur = experiment: Test B pre/postemergence cocklebur; format: in vivo, Xanthium strumarium
# Procedure, shortened: (§2)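 Response is a visual 0-to-10 score relative to untreated plants, where 0 means no effect and 10 means complete control, taken twelve to sixteen days after application. Treatments went onto soil at planting and onto foliage of 1- to 4-leaf plants, using a surfactant-containing non-phytotoxic solvent.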
# corn = experiment: Test B pre/postemergence corn; format: in vivo, Zea mays
# Procedure, shortened: as §2
# morningglory = experiment: Test B pre/postemergence morningglory; format: in vivo, Ipomoea hederacea
# Procedure, shortened: as §2
# sugar beet = experiment: Test B pre/postemergence sugar beet; format: in vivo, Beta vulgaris
# Procedure, shortened: as §2
# pigweed = experiment: Test B pre/postemergence pigweed; format: in vivo, Amaranthus retroflexus
# Procedure, shortened: as §2
# duck salad = experiment: Test B flood test duck salad; format: in vivo, Heteranthera limosa
# Procedure, shortened: as §1
# soybean = experiment: Test B pre/postemergence soybean; format: in vivo, Glycine max
# Procedure, shortened: as §2
# purple nutsedge = experiment: Test B pre/postemergence purple nutsedge; format: in vivo, Cyperus rotundus
# Procedure, shortened: as §2
# rape = experiment: Test B pre/postemergence rape; format: in vivo, Brassica napus
# Procedure, shortened: as §2
# blackgrass = experiment: Test B pre/postemergence blackgrass; format: in vivo, Alopecurus myosuroides
# Procedure, shortened: as §2
# wheat = experiment: Test B pre/postemergence wheat; format: in vivo, Triticum aestivum
# Procedure, shortened: as §2
# velvetleaf = experiment: Test B pre/postemergence velvetleaf; format: in vivo, Abutilon theophrasti
# Procedure, shortened: as §2
# crabgrass = experiment: Test B pre/postemergence crabgrass; format: in vivo, Digitaria sanguinalis
# Procedure, shortened: as §2
# smallflower flatsedge = experiment: Test B flood test smallflower flatsedge; format: in vivo, Cyperus difformis
# Procedure, shortened: as §1
# giant foxtail = experiment: Test B pre/postemergence giant foxtail; format: in vivo, Setaria faberii
# Procedure, shortened: as §2
# [1] = Rate 62 g/ha, flood test species, Pre-emergence, visual evaluation after twelve to sixteen days
# [2] = Rate 125 g/ha, under heading Pre-emergence, flood test species, visual evaluation after twelve to sixteen days
# [3] = Rate 250 g/ha, Pre-emergence (flood test species), scale 0 to 10, 0 is no effect, 10 is complete control
# [4] = Rate 500 g/ha, Pre-emergence section of Table B, 0 to 10 scale (0 no effect, 10 complete control)
# [5] = Postemergence, Rate 62 g/ha, scale 0 to 10, 0 is no effect, 10 is complete control
# [6] = Postemergence, Rate 125 g/ha, scale of 0 to 10 where 0 is no effect and 10 is complete control
# [7] = Postemergence, Rate 250 g/ha, scale of 0 to 10, 0 is no effect, 10 is complete control
# [8] = Postemergence, Rate 500 g/ha, scale of 0 to 10 where 0 is no effect and 10 is complete control
# [9] = Preemergence, Rate 62 g/ha, scale 0 to 10 (0 no effect, 10 complete control)
# [10] = Preemergence, Rate 125 g/ha, scale of 0 to 10 where 0 is no effect and 10 is complete control
# [11] = Preemergence, Rate 250 g/ha, scale 0 to 10 (0 no effect, 10 complete control)
# [12] = Preemergence, Rate 500 g/ha, scale of 0 to 10 where 0 is no effect and 10 is complete control
compound,measurement,setting,value
COCCn1c(=O)on(C(=O)N(c2ccccc2)C(C)C)c1=O [Compound 631],"Plant response rating, Rice (0 to 10 scale, 0 is no effect, 10 is complete control)",rice; [1],0
same,"Rice plant response rating (0 to 10 scale, 0 is no effect, 10 is complete control)",rice; [2],0
same,Rice plant response rating,rice; [3],0
same,Rice plant response rating,rice; [4],0
same,"Plant response rating, Cocklebur",cocklebur; [5],0
same,"Plant response rating, Cocklebur",cocklebur; [6],0
same,Cocklebur plant response rating,cocklebur; [7],0
same,"Plant response rating, Cocklebur",cocklebur; [8],2
same,Cocklebur plant response rating,cocklebur; [9],0
same,Cocklebur plant response rating,cocklebur; [10],0
same,"Plant response rating, Cocklebur",cocklebur; [11],0
same,"Plant response rating, Cocklebur",cocklebur; [12],2
same,"Plant response rating, Corn",corn; [5],5
same,"Plant response rating, Corn",corn; [6],5
same,Corn plant response rating,corn; [7],6
same,"Plant response rating, Corn",corn; [8],8
same,Corn plant response rating,corn; [9],5
same,Corn plant response rating,corn; [10],6
same,"Plant response rating, Corn",corn; [11],8
same,"Plant response rating, Corn",corn; [12],9
same,"Plant response rating, Morningglory",morningglory; [5],0
same,"Plant response rating, Morningglory",morningglory; [6],4
same,Morningglory plant response rating,morningglory; [7],4
same,"Plant response rating, Morningglory",morningglory; [8],10
same,Morningglory plant response rating,morningglory; [9],0
same,Morningglory plant response rating,morningglory; [10],0
same,"Plant response rating, Morningglory",morningglory; [11],4
same,"Plant response rating, Morningglory",morningglory; [12],7
same,"Plant response rating, Sugarbeets",sugar beet; [5],0
same,"Plant response rating, Sugarbeets",sugar beet; [6],0
same,Sugarbeets plant response rating,sugar beet; [7],0
same,Sugarbeets plant response rating,sugar beet; [9],0
same,Sugarbeets plant response rating,sugar beet; [10],3
same,"Plant response rating, Sugarbeets",sugar beet; [11],4
same,"Plant response rating, Sugarbeets",sugar beet; [12],8
same,"Plant response rating, Redroot pigweed",pigweed; [5],0
same,"Plant response rating, Redroot pigweed",pigweed; [6],0
same,Redroot pigweed plant response rating,pigweed; [9],7
same,Redroot pigweed plant response rating,pigweed; [10],9
same,"Plant response rating, Redroot pigweed",pigweed; [11],10
same,"Plant response rating, Redroot pigweed",pigweed; [12],10
same,"Plant response rating, Ducksalad (0 to 10 scale, 0 is no effect, 10 is complete control)",duck salad; [1],0
same,"Ducksalad plant response rating (0 to 10 scale, 0 is no effect, 10 is complete control)",duck salad; [2],0
same,Ducksalad plant response rating,duck salad; [3],0
same,Ducksalad plant response rating,duck salad; [4],0
same,"Plant response rating, Soybean",soybean; [5],5
same,"Plant response rating, Soybean",soybean; [6],5
same,Soybean plant response rating,soybean; [7],8
same,Soybean plant response rating,soybean; [9],2
same,Soybean plant response rating,soybean; [10],5
same,"Plant response rating, Soybean",soybean; [11],9
same,"Plant response rating, Soybean",soybean; [12],9
same,"Plant response rating, Nutsedge",purple nutsedge; [5],0
same,"Plant response rating, Nutsedge",purple nutsedge; [6],0
same,Nutsedge plant response rating,purple nutsedge; [7],0
same,Nutsedge plant response rating,purple nutsedge; [9],0
same,Nutsedge plant response rating,purple nutsedge; [10],4
same,"Plant response rating, Nutsedge",purple nutsedge; [11],4
same,"Plant response rating, Nutsedge",purple nutsedge; [12],8
same,"Plant response rating, Rape",rape; [5],0
same,"Plant response rating, Rape",rape; [6],0
same,Rape plant response rating,rape; [7],2
same,"Plant response rating, Rape",rape; [8],2
same,Rape plant response rating,rape; [9],0
same,Rape plant response rating,rape; [10],0
same,"Plant response rating, Rape",rape; [11],6
same,"Plant response rating, Rape",rape; [12],8
same,"Plant response rating, Blackgrass",blackgrass; [5],1
same,"Plant response rating, Blackgrass",blackgrass; [6],8
same,Blackgrass plant response rating,blackgrass; [7],6
same,"Plant response rating, Blackgrass",blackgrass; [8],9
same,Blackgrass plant response rating,blackgrass; [9],6
same,Blackgrass plant response rating,blackgrass; [10],7
same,"Plant response rating, Blackgrass",blackgrass; [11],9
same,"Plant response rating, Blackgrass",blackgrass; [12],10
same,"Plant response rating, Wheat",wheat; [5],0
same,"Plant response rating, Wheat",wheat; [6],2
same,Wheat plant response rating,wheat; [7],6
same,Wheat plant response rating,wheat; [9],0
same,Wheat plant response rating,wheat; [10],3
same,"Plant response rating, Wheat",wheat; [11],8
same,"Plant response rating, Wheat",wheat; [12],9
same,"Plant response rating, Velvetleaf",velvetleaf; [5],4
same,"Plant response rating, Velvetleaf",velvetleaf; [6],4
same,Velvetleaf plant response rating,velvetleaf; [7],7
same,Velvetleaf plant response rating,velvetleaf; [9],6
same,Velvetleaf plant response rating,velvetleaf; [10],7
same,"Plant response rating, Velvetleaf",velvetleaf; [11],7
same,"Plant response rating, Velvetleaf",velvetleaf; [12],9
same,"Plant response rating, Crabgrass",crabgrass; [5],8
same,"Plant response rating, Crabgrass",crabgrass; [6],9
same,Crabgrass plant response rating,crabgrass; [7],9
same,"Plant response rating, Crabgrass",crabgrass; [8],9
same,Crabgrass plant response rating,crabgrass; [9],7
same,Crabgrass plant response rating,crabgrass; [10],7
same,"Plant response rating, Crabgrass",crabgrass; [11],9
same,"Plant response rating, Crabgrass",crabgrass; [12],9
same,"Plant response rating, S. Flatsedge (0 to 10 scale, 0 is no effect, 10 is complete control)",smallflower flatsedge; [1],0
same,"S. Flatsedge plant response rating (0 to 10 scale, 0 is no effect, 10 is complete control)",smallflower flatsedge; [2],0
same,S. Flatsedge plant response rating,smallflower flatsedge; [3],0
same,S. Flatsedge plant response rating,smallflower flatsedge; [4],0
same,"Plant response rating, Giant foxtail",giant foxtail; [5],8
same,"Plant response rating, Giant foxtail",giant foxtail; [6],9
same,Giant foxtail plant response rating,giant foxtail; [7],9
same,"Plant response rating, Giant foxtail",giant foxtail; [8],9
same,Giant foxtail plant response rating,giant foxtail; [9],9
same,Giant foxtail plant response rating,giant foxtail; [10],9
same,"Plant response rating, Giant foxtail",giant foxtail; [11],10
same,"Plant response rating, Giant foxtail",giant foxtail; [12],10
